Laboratory results reported in article PMC6589325, “Evaluation of Anti-HIV-1 Integrase and Anti-Inflammatory Activities of Compounds from Betula alnoides Buch-Ham” (Advances in Pharmacological Sciences, 2019).
Where two headings read alike, the source gives them in different places.

Tests used:
HIV-1 IN [1] = target: T1, HIV-1 IN (Human immunodeficiency virus type 1 group M subtype B, UniProt P04585); conditions: cited from earlier work; for IC50: read-out: IC50 against HIV-1 IN (converted); for Effect against HIV-1 IN: isolated from Coleus parvifolius
T1 construct: using HIV-1 IN enzymes according to the multiplate integration assay (MIA)

HIV-1 IN [2] = target: T1, HIV-1 IN; experiment: HIV-1 IN inhibitory activity, multiplate integration assay (MIA); format: biochemical
Method: The anti-HIV IN activity of isolated compounds was determined in an in vitro model using HIV-1 IN enzymes according to the multiplate integration assay (MIA) as previously described. Briefly, a mixture (45 μL) composed of 12 μL of IN buffer (containing 150 mM 3-(N-morpholino)propanesulfonic acid, pH 7.2 (MOPS), 75 mM MnCl2, 5 mM dithiothreitol (DTT), 25% glycerol, and 500 μg/mL bovine serum albumin), 1 μL of 5 pmol/mL digoxigenin-labeled target DNA, and 32 μL of sterilized water was added into each well of a 96-well plate. Subsequently, 6 μL of sample solution in DMSO and 9 μL of a 1/5 dilution of the IN enzyme were added to each well and incubated at 37°C for 80 min. After washing the plate three times with PBS with 0.05% Tween 20 (PBST), 100 μL of 500 mU/mL alkaline phosphatase- (AP-) labeled anti-digoxigenin antibody was added and incubated at 37°C for 1 h. The plates were washed with PBS three times. Then, AP buffer (150 μL) containing 100 mM Tris-HCl (pH 9.5), 100 mM NaCl, 5 mM MgCl2, and 10 mM p-nitrophenyl phosphate was added to each well and incubated at 37°C for 1 h. Finally, the absorbance of p-nitrophenol, the final product of the integration reaction, was measured with a microplate reader (Rayto, RT-2100C) at a wavelength of 405 nm. Suramin, a polyanionic HIV-1 IN inhibitor, was used as a positive control.

[3] = system: LPS-induced nitric oxide production in RAW264.7 cells; experiment: Inhibitory effect on LPS-induced nitric oxide (NO) production in RAW264.7 cells (Griess reagent); format: cell-based; conditions: for inhibition at 3 µM / inhibition at 10 µM / inhibition at 30 µM / inhibition at 100 µM: read-out: % Inhibition at various concentration (μM), NO production; for IC50: read-out: IC50, inhibition of LPS-induced NO production
Method: To evaluate the anti-inflammatory activity, an inhibitory effect on nitric oxide (NO) production was carried out according to the previous report described by Sudsai et al.. Briefly, RAW264.7 cells were seeded onto 96-well plates (1 × 10^5 cells/well) and were maintained to adhere at 37°C for 1 h in a CO2 incubator containing 5% CO2. They were then cultured in RPMI-1640 medium containing lipopolysaccharide (LPS, 100 ng/ml) together with the test compounds at various concentrations (3–100 μM). After 24 h of incubation, the nitrite (NO^2–) concentration in the culture medium was determined as an indicator of NO production using the Griess reagent to assay the accumulation of NO^2–, a stable metabolite of NO. The absorbance was measured using a microplate reader at 570 nm. In this study, NO synthase inhibitor (L-nitro-arginine, L-NA), nuclear translocation of NF-κB inhibitor (caffeic acid phenethyl ester, CAPE) and nonsteroidal anti-inflammatory drug, NSAID (indomethacin), were used as positive controls.

[4] = system: RAW264.7 macrophage cells; experiment: Viability assay of RAW264.7 macrophage cells (MTT); conditions: 24 h, cytotoxic when viability less than 80% of control
Method: The cytotoxicity of the test compounds after 24 h of incubation was determined by the colorimetric method described by Sudsai et al.. A volume of 10 μl of MTT solution (5 mg/ml in PBS) was added to each well of 96-well plates and further incubated in a CO2 incubator for 4 h. The formazan products generated by MTT reduction were dissolved in DMSO. At last, the medium was removed, 100 μl of DMSO was then added to each well and thoroughly mixed by gently tapping on the test plate. The absorbance of formazan solution was measured at a wavelength of 570 nm using a microplate reader. The test compounds were considered to be cytotoxic when the viability of the compound-treated group was less than 80% of that in the control (1% DMSO-treated) group.

[5] = read-out: % Inhibition at various concentrations
[6] = mean ± S.E.M. of four determinations, read-out: IC50, anti-HIV-1 integrase activity
[7] = Mus musculus, RAW264.7, 3 μM, LPS 100 ng/ml, 24 h
[8] = Mus musculus, RAW264.7, 10 μM, LPS 100 ng/ml, 24 h
[9] = Mus musculus, RAW264.7, 30 μM, LPS 100 ng/ml, 24 h
[10] = Mus musculus, RAW264.7, 100 μM, LPS 100 ng/ml, 24 h
[11] = Mus musculus, RAW264.7 cells, LPS 100 ng/ml, 24 h

| SMILES | inhibition at 10 µM (HIV-1 IN [2]; [5]) | inhibition at 30 µM (HIV-1 IN [2]; [5]) | inhibition at 100 µM (HIV-1 IN [2]; [5]) | IC50 (HIV-1 IN [2]; [6]) | inhibition at 3 µM [3, 7] | inhibition at 10 µM [3, 8] | inhibition at 30 µM [3, 9] | inhibition at 100 µM [3, 10] | IC50 [3, 11] | also measured |
| --- | --- | --- | --- | --- | --- | --- | --- | --- | --- | --- |
| Oc1cc(O)c2c(c1)CCc1cc(O)c(O)cc1-2 [2,4,6,7-tetrahydroxy 9,10-dihydrophenanthrene] |  |  |  |  |  |  |  |  |  | IC50 (HIV-1 IN [1]; from bulbils of Dioscorea bulbifera): 14.2 µM |
| Oc1cc(O)c2c(c1)O[C@H](c1ccc(O)c(O)c1)[C@@H](O)C2 [(+)-Catechin] |  |  |  |  |  |  |  |  |  | IC50 (HIV-1 IN [1]; isolated from Albizia procera bark): 46.3 µM |
| C=C(C)[C@@H]1CC[C@]2(CO)CC[C@]3(C)[C@H](CC[C@@H]4[C@@]5(C)CC[C@H](O)C(C)(C)[C@@H]5CC[C@]43C)[C@@H]12 [Betulin (2), betulin] | 41.2 ± 1.5% | 57.6 ± 1.2% | 70.7 ± 2.1% | 17.7 ± 0.6 µM |  |  |  |  |  | inhibition at 3 µM ([3]; Mus musculus, RAW264.7, 24 h): 2.9 ± 1.9%; inhibition at 10 µM ([3]; Mus musculus, RAW264.7, 24 h): 13 ± 1.6%; inhibition at 30 µM ([3]; Mus musculus, RAW264.7, 24 h): 58 ± 1.1%; inhibition at 100 µM ([3]; Mus musculus, RAW264.7, 24 h): 81.8 ± 1.2%; IC50 ([3]; Mus musculus, RAW264.7, 24 h): 30.1 ± 0.3 µM; Cytotoxicity to RAW 264.7 cells [4]: caused cytotoxicity |
| C=C(C)[C@@H]1CC[C@]2(C(=O)O)CC[C@]3(C)[C@H](CC[C@@H]4[C@@]5(C)CC[C@H](O)C(C)(C)[C@@H]5CC[C@]43C)[C@@H]12 [Betulinic acid (1), betulinic acid] | 39 ± 2.3% | 53.2 ± 1.2% | 65.6 ± 2.1% | 24.8 ± 1.3 µM | 14.6 ± 2.3% | 22.1 ± 1.2% | 49.4 ± 3.2% | 79.5 ± 1.7% | 31 ± 1.9 µM |  |
| O=C(/C=C/c1ccc(O)c(O)c1)OCCc1ccccc1 [CAPE, caffeic acid phenethyl ester, reference compound] |  |  |  |  | 22.7 ± 3.1% | 48.6 ± 0.7% | 66.8 ± 0.5% | 85.9 ± 1% | 12.3 ± 0.8 µM |  |
| COc1ccc2c(c1)c(CC(=O)O)c(C)n2C(=O)c1ccc(Cl)cc1 [Indomethacin, indomethacin, reference compound] |  |  |  |  | 32 ± 2.6% | 43.8 ± 1.2% | 54.1 ± 2% | 79 ± 1.4% | 17.6 ± 1.6 µM |  |
| NC(=NCCC[C@H](N)C(=O)O)N[N+](=O)[O-] [L-NA, L-nitro-arginine, reference compound] |  |  |  |  |  |  |  |  |  | % Inhibition at various concentration (μM), NO production ([3]; 3 μM, LPS 100 ng/ml, 24 h): 19.3 ± 4.7%; % Inhibition at various concentration (μM), NO production ([3]; 10 μM, LPS 100 ng/ml, 24 h): 22.1 ± 1.9%; % Inhibition at various concentration (μM), NO production ([3]; 30 μM, LPS 100 ng/ml, 24 h): 32.6 ± 3.5%; % Inhibition at various concentration (μM), NO production ([3]; 100 μM, LPS 100 ng/ml, 24 h): 79.7 ± 4.8%; IC50 ([3]; RAW264.7 cells, LPS 100 ng/ml, 24 h): 40.4 ± 6.1 µM |
| C=C(C)[C@@H]1CC[C@]2(C)CC[C@]3(C)[C@H](CC[C@@H]4[C@@]5(C)CC[C@H](O)C(C)(C)[C@@H]5CC[C@]43C)[C@@H]12 [Lupeol (3), lupeol] | 12.2 ± 1.3% | 25.9 ± 2% | 40.6 ± 1.8% | > 100 µM | 6 ± 1.7% | 11.4 ± 2.7% | 23.4 ± 1.9% | 78.2 ± 1% | 47.3 ± 1 µM | IC50, anti-HIV-1 integrase activity (HIV-1 IN [2]; mean ± S.E.M. of four determinations): inactive; Cytotoxicity to RAW 264.7 cells [4]: caused cytotoxicity |
| CN1C[C@H](O)C[C@H]1C(=O)O [N-methyl-trans-4-hydroxy-L-proline] |  |  |  |  |  |  |  |  |  | IC50 (HIV-1 IN [1]; from Aglaia andamanica leaves): 81.3 µM |
| CC1(C)CC[C@]2(C(=O)O)CC[C@]3(C)C(=CC[C@@H]4[C@@]5(C)CC[C@H](O)C(C)(C)[C@@H]5CC[C@]43C)[C@@H]2C1 [Oleanolic acid (4), oleanolic acid] | 33.4 ± 1.8% | 49.1 ± 2.2% | 65.5 ± 1.5% |  | 10.9 ± 1.8% | 18.4 ± 1.2% | 28.2 ± 3.2% | 63.4 ± 1% | 62.8 ± 3.6 µM | IC50 (HIV-1 IN [2]; IC50, anti-HIV-1 integrase activity, mean ± S.E.M. of four determinations): 30.3 ± 1.3 µM |
| Cc1ccc(C(=O)Nc2ccc(S(=O)(=O)O)c3cc(S(=O)(=O)O)cc(S(=O)(=O)O)c23)cc1NC(=O)c1cccc(NC(=O)Nc2cccc(C(=O)Nc3cc(C(=O)Nc4ccc(S(=O)(=O)O)c5cc(S(=O)(=O)O)cc(S(=O)(=O)O)c45)ccc3C)c2)c1 [Suramin, reference compound] | 70.9 ± 1.5% | 93.3 ± 1.3% | 99.9 ± 1.7% | 2.8 ± 0.1 µM |  |  |  |  |  | inhibition at 1 µM (HIV-1 IN [2]; 1 μM, read-out: % Inhibition at various concentrations): 32.1 ± 0.6%; inhibition at 3 µM (HIV-1 IN [2]; 3 μM, read-out: % Inhibition at various concentrations): 50.3 ± 1.6%; IC50 (HIV-1 IN [2]; mean ± S.E.M. of four determinations, read-out: IC50, anti-HIV-1 IN activity of B. alnoides extract and its fractions (converted)): 3.01 µM |
| C[C@H]1[C@H](C)CC[C@]2(C(=O)O)CC[C@]3(C)C(=CC[C@@H]4[C@@]5(C)CC[C@H](O)C(C)(C)[C@@H]5CC[C@]43C)[C@H]12 [Ursolic acid (5), ursolic acid] | 31.6 ± 0.9% | 48.5 ± 1.2% | 60.2 ± 2.1% | 35 ± 1 µM | 5.4 ± 2.3% | 10.2 ± 3.2% | 13.6 ± 3.2% | 67.1 ± 1.8% | 68.7 ± 5.9 µM |  |
| O=C(/C=C/c1ccc(O)cc1)CC(=O)/C=C/c1ccc(O)cc1 [bisdemethoxycurcumin] |  |  |  |  |  |  |  |  |  | IC50 (HIV-1 IN [1]; from rhizomes of Boesenbergia kingii): 47.7 µM |
| COc1cc(O)c2c(=O)cc(-c3ccc(O)c(O)c3)oc2c1 [luteolin 7-methyl ether] |  |  |  |  |  |  |  |  |  | Effect against HIV-1 IN (HIV-1 IN [1]): potent |
| O=c1cc(-c2ccc(O)c(O)c2)oc2cc(O)cc(O)c12 [luteolin] |  |  |  |  |  |  |  |  |  | Effect against HIV-1 IN (HIV-1 IN [1]): potent |
| O=C(O)c1ccc(O)c(O)c1 [protocatechuic acid] |  |  |  |  |  |  |  |  |  | % inhibition of HIV-1 IN (HIV-1 IN [1]; 100 μM): 46.0% |
